Results taken from ChEMBL document CHEMBL4482325, “Clpx inhibitory compounds for the treatment of multi resistant staphylococcus aureus virulence and for the treatment of leukemia” (2018).
The source made the active and inactive calls. The rule behind the calls is not given here.

How the values were obtained:
Staphylococcus aureus [1] = assay: (§1) Inhibition of Staphylococcus aureus ClpXP using ssrA degradation tagged fluorescent GFP substrate in presence of ATP regeneration system pre-incubation for 15 mins before substrate addition by fluorescence assay
[2] = as §1
[3] = biological target: T1, ATP-dependent Clp protease proteolytic subunit (Staphylococcus aureus (strain NCTC 8325)) (UniProt Q2G036); assay: Inhibition of Staphylococcus aureus ClpP using ssrA degradation tagged fluorescent GFP substrate in presence of ATP regeneration system pre-incubation for 15 mins before substrate addition by fluorescence assay
T1 sequence (whole entry): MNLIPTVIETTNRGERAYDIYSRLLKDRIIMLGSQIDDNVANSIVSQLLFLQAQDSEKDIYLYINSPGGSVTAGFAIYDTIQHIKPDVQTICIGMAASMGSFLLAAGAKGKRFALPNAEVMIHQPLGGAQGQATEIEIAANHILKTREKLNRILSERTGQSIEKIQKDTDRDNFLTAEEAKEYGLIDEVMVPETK

Staphylococcus aureus [4] = assay: Inhibition of Staphylococcus aureus ClpCP at 100 uM using ssrA degradation tagged fluorescent GFP substrate in presence of ATP regeneration system pre-incubation for 15 mins before substrate addition by fluorescence assay
A549 = assay: Cytotoxicity against human A549 cells assessed as reduction in residual metabolic activity at 1 to 50 uM incubated for 24 hrs by MTT assay; type: functional, cell-based
[5] = Inhibition of Staphylococcus aureus ClpPX assessed as reduction in ATP hydrolysis incubated for 2 to 14 mins by malachite green assay
Homo sapiens [6] = species on record: Homo sapiens; assay: Inhibition of human ClpXP at 1 to 100 uM preincubated for 15 mins before FITC-labeled casein substrate addition in presence of ATP regeneration mix and creatine kinase
K562 = assay: Cytotoxicity against human K562 cells assessed as reduction in cell viability up to 100 uM incubated for 72 hrs by cell-titer blue reagent based assay; type: functional
Homo sapiens [7] = species on record: Homo sapiens; assay: Cytotoxicity against human S-Jurkat cells assessed as reduction in cell viability up to 120 uM incubated for 72 hrs by cell-titer blue reagent based assay; type: functional
CCRF-CEM = assay: Cytotoxicity against human CCRF-CEM cells assessed as reduction in cell viability up to 120 uM incubated for 72 hrs by cell-titer blue reagent based assay; type: functional
Staphylococcus aureus [8] = assay: Binding affinity to Staphylococcus aureus ClpXP assessed as induction of collapse of ClpXP proteolytic complex
Staphylococcus aureus [9] = assay: Inhibition of Staphylococcus aureus ClpXP using ssrA degradation tagged fluorescent GFP substrate in presence of ATP regeneration system pre-incubation for 15 mins before substrate addition by fluorescence assay relative to control
[10] = (§2) Inhibition of ClpXP in Staphylococcus aureus NCTC 8325 assessed as reduction in extracellular proteolytic activity by measuring hemolysis of sheep erythrocytes exposed to supernatants of 20 hrs compound pre-treated Staphylococcus aureus
Staphylococcus aureus [11] = assay: as §2
Staphylococcus aureus [12] = assay: Inhibition of ClpXP in Staphylococcus aureus NCTC 8325 assessed as reduction in extracellular proteolytic activity by measuring overall proteolysis of sheep erythrocytes exposed to supernatants of 20 hrs 0.1 to 30 nmol compound pre-treated Staphylococcus aureus
Staphylococcus aureus [13] = assay: Suppression of virulence factors in Staphylococcus aureus NCTC 8325 assessed as reduction in gamma hemolysin-C protein expression; type: functional, organism-based
Staphylococcus aureus [14] = assay: Suppression of virulence factors in Staphylococcus aureus NCTC 8325 assessed as reduction in serine protease A expression; type: functional, organism-based
Staphylococcus aureus [15] = assay: Suppression of virulence factors in Staphylococcus aureus NCTC 8325 assessed as reduction in serine protease B expression; type: functional, organism-based
Staphylococcus aureus [16] = assay: Suppression of virulence factors in Staphylococcus aureus NCTC 8325 assessed as reduction in serine protease C expression; type: functional, organism-based
Staphylococcus aureus [17] = assay: Suppression of virulence factors in Staphylococcus aureus NCTC 8325 assessed as reduction in serine protease D expression; type: functional, organism-based
Staphylococcus aureus [18] = assay: Suppression of virulence factors in Staphylococcus aureus NCTC 8325 assessed as reduction in serine protease E expression; type: functional, organism-based
Staphylococcus aureus [19] = assay: Suppression of virulence factors in Staphylococcus aureus NCTC 8325 assessed as reduction in serine protease F expression; type: functional, organism-based
Staphylococcus aureus [20] = assay: Suppression of virulence factors in Staphylococcus aureus NCTC 8325 assessed as reduction in staphopain-A expression; type: functional, organism-based
[21] = Half life in mouse plasma at 100 uM by HPLC and MS analysis; type: ADME, cell-free
Staphylococcus aureus [22] = assay: Binding affinity to Staphylococcus aureus ClpPX assessed as induction of covalent modification a 100 um incubated for 60 mins by intact mass spectrometry

COc1ccc2c(c1)SC(c1cccc(O)c1)C1=C(N2)c2ccccc2C1=O (stereo not given)
inhibition (active/not active) (Staphylococcus aureus [1]): Active

O=C1C2=C(Nc3ccccc3SC2c2cccc(F)c2)c2ccccc21 (stereo not given)
inhibition (active/not active) (Staphylococcus aureus [1]): Active

C#Cc1ccc2c(c1)C(=O)C1=C2Nc2ccccc2SC1c1cc(O)cc(N=[N+]=[N-])c1 (stereo not given)
inhibition (active/not active) (Staphylococcus aureus [1]): Active

Cc1ccc(NC(=O)Cc2ccc(NC(=O)N3CCCCc4ccccc43)cc2)cc1C
IC50 [2]: 1600 nM
inhibition [3]: inactive
inhibition (Staphylococcus aureus [4]): inactive

C#CCNC(=O)c1ccc2c(c1)C(=O)C1=C2Nc2ccccc2SC1c1cccc(OC)c1 (stereo not given)
inhibition (active/not active) (Staphylococcus aureus [1]): Active

COc1ccc(-n2ccnc(SCC(=O)Nc3cc(OC)cc(OC)c3)c2=O)cc1
IC50 [2]: 2200 nM
inhibition [3]: inactive
inhibition (Staphylococcus aureus [4]): inactive

O=C1C2=C(Nc3ccccc3SC2c2cccc(CO)c2)c2ccccc21 (stereo not given)
inhibition (active/not active) (Staphylococcus aureus [1]): Active
Activity (A549): inactive

O=C1C2=C(Nc3ccccc3SC2c2cccs2)c2ccccc21 (stereo not given)
IC50 [2]: 2500 nM
inhibition [3]: inactive
IC50 [5]: 1600 to 2400 nM
inhibition (Homo sapiens [6]): Active
Activity (K562): Active
Activity (Homo sapiens [7]): Active
Activity (CCRF-CEM): Active
inhibition (Staphylococcus aureus [4]): inactive

O=C1C2=C(Nc3ccccc3S(=O)(=O)C2c2ccc(C(F)(F)F)cc2)c2ccccc21 (stereo not given)
inhibition (active/not active) (Staphylococcus aureus [1]): Active

C#Cc1ccc2c(c1)C1=C(C2=O)C(c2cccc(O)c2)Sc2ccccc2N1 (stereo not given)
inhibition (active/not active) (Staphylococcus aureus [1]): Active

O=C1C2=C(Nc3ccccc3NC2c2ccccc2)c2ccccc21 (stereo not given)
inhibition (active/not active) (Staphylococcus aureus [1]): Active

O=C1C2=C(Nc3ccccc3SC2c2ccccc2O)c2ccccc21 (stereo not given)
inhibition (active/not active) (Staphylococcus aureus [1]): inactive

N#CC1=C(N)Oc2cc3c(cc2C1c1ccc(OCc2ccc(F)cc2)cc1)OCO3 (stereo not given)
IC50 [2]: 600 nM
inhibition [3]: inactive
inhibition (Staphylococcus aureus [4]): inactive

O=C1C2=C(Nc3ccccc3SC2c2cccc(O)c2)c2ccccc21 (stereo not given)
IC50 [2]: 1500 nM
inhibition [3]: inactive
IC50 [5]: 1600 to 2400 nM
Activity (Staphylococcus aureus [8]): Active
inhibition (Staphylococcus aureus [9]): 100%
IC50 [10]: 3000 nM
inhibition (Staphylococcus aureus [11]): Dose-dependent effect
inhibition (Staphylococcus aureus [12]): Active
Activity (Staphylococcus aureus [13]): Dose-dependent effect
EC50 (Staphylococcus aureus [13]): 3000 nM
Activity (Staphylococcus aureus [14]): Dose-dependent effect
EC50 (Staphylococcus aureus [14]): 3000 nM
Activity (Staphylococcus aureus [15]): Dose-dependent effect
EC50 (Staphylococcus aureus [15]): 3000 nM
Activity (Staphylococcus aureus [16]): Dose-dependent effect
EC50 (Staphylococcus aureus [16]): 3000 nM
Activity (Staphylococcus aureus [17]): Dose-dependent effect
EC50 (Staphylococcus aureus [17]): 3000 nM
Activity (Staphylococcus aureus [18]): Dose-dependent effect
EC50 (Staphylococcus aureus [18]): 3000 nM
Activity (Staphylococcus aureus [19]): Dose-dependent effect
EC50 (Staphylococcus aureus [19]): 3000 nM
Activity (Staphylococcus aureus [20]): Dose-dependent effect
EC50 (Staphylococcus aureus [20]): 3000 nM
inhibition (Homo sapiens [6]): Active
half-life at 100 µM [21]: > 4 h
Activity (K562): Active
Activity (Homo sapiens [7]): Active
Activity (CCRF-CEM): Active
inhibition (Staphylococcus aureus [4]): inactive
Activity (Staphylococcus aureus [22]): inactive

Nc1cccc(C2Sc3ccccc3NC3=C2C(=O)c2ccccc23)c1 (stereo not given)
inhibition (active/not active) (Staphylococcus aureus [1]): Active

O=C1C2=C(Nc3ccccc3SC2c2ccc(F)cc2)c2ccccc21 (stereo not given)
inhibition (active/not active) (Staphylococcus aureus [1]): Active

O=C1C2=C(Nc3ccccc3SC2c2cc(O)cc(Br)c2)c2ccccc21 (stereo not given)
inhibition (active/not active) (Staphylococcus aureus [1]): Active

O=C1C2=C(Nc3ccccc3S(=O)(=O)C2c2cccc(O)c2)c2ccccc21 (stereo not given)
inhibition (active/not active) (Staphylococcus aureus [1]): Active
Activity (A549): inactive

O=C1C2=C(Nc3ccccc3SC2c2cc(O)cc(O)c2)c2ccccc21 (stereo not given)
inhibition (active/not active) (Staphylococcus aureus [1]): Active

C#Cc1ccc2c(c1)C(=O)C1=C2Nc2ccccc2SC1c1cccc(O)c1 (stereo not given)
inhibition (active/not active) (Staphylococcus aureus [1]): Active
